Molecules are shown by their SMILES.

Consider 1 compound from patent US20230226048A1, “NEW USE OF RABEXIMOD” (Cyxone AB, priority 2020, published 2023).

Data set [1] has as its system T cell proliferation. As to the kind of experiment: ConA-stimulated proliferation of lymph node cells from DA rats immunized with rat collagen II, [3H]-thymidine. To be noted: ConA 1.5 μg/ml, 48 h. The format is cell-based. The procedure: draining lymph nodes collected day 9 p.i. from DA rats immunized with rat collagen II (RCII) in Freund's Incomplete Adjuvant (FIA) were used to prepare individual single cell suspensions. Lymph nodes were grinded through wire mesh and cells washed 3 times in incomplete DMEM cell culture medium. Cells were counted by trypan blue exclusion and cell suspensions of 2×10^6 cells/ml in complete DMEM prepared. 4×10^5 cells per well were seeded in flat-bottomed 96-well microtiter plates. Triplicates of each individual cell suspension were incubated with 1.5 μg/ml ConA. ConA was diluted in phosphate buffered saline, D-PBS. Spontaneous proliferation was determined by measuring proliferation in cell cultures without addition of ConA. As a positive proliferation control cells were stimulated with ConA together with 10 μl of the rabeximod vehicle, 0.01 M acetic acid. Doses of rabeximod were added in 10 μl vehicle so that the final concentrations in cell cultures ranged from 50-800 ng/ml. Cell cultures were incubated at 37° C.+5% CO2 for 48 h and 1 μCi of [^3H]-Thymidine per well was added to the cultures for the last 12 h. Cellular incorporation of [^3H]-thymidine was measured using a 1450 Microbeta Wallac Trilux Liquid Scintillation Luminescence Counter after harvesting the cells onto nitrocellulose filters.
Individual Inhibition Indices (1.1.) were calculated by dividing the average counts per minute (cpm) value of each triplicate stimulated with ConA and rabeximod with the average cpm value of the triplicate stimulated with ConA only. The inhibition of proliferation induced by rabeximod addition was expressed as % of the positive control (ConA only), i.e. by multiplying the inhibition indices with 100.

Data set [2] relates to mixed lymphocytes reaction (MLR) of human donors. As to the kind of experiment: Mixed lymphocytes reaction (MLR) of human donors, 3[H]-thymidine incorporation. It counts as cell-based. The procedure: Peripheral blood mononuclear cells (PBMCs) were prepared and modified for use as stimulator cells through γ-irradiation, or for use as responder cells. Rabeximod was then added to a responder and […] cell mix at various concentrations (of 10^−5, 10^−6, 10^−7 and 10^−8 M) before the cells were incubated. In the test, responder cells should proliferate more in the presence than in the absence of stimulator cells.
Normal PBMCs were obtained from healthy volunteers at the blood bank (Shiba medical center, Tel-Hashomer). Blood donations tested negative to HBSAg, HIV, HCV, ALT, HTLV and TPHA. Twelve donors were obtained in 3 sessions following review by the Committee for Ethical Conduct in the Care and Use of Laboratory Animals of the Hebrew University, Jerusalem, the Institutional Animal Care and Use Committee (IACUC) responsible for approving Harlan Biotech (Israel) animal usage application in compliance with its respective registration under National Institues of Health (NIH) accreditation no. OPR-A01-5011. Peripheral blood mononuclear cells (PBMCs) were freshly separated from heparinized full blood by Ficoll-Hypaque (IsoPrep, Robbins Scientific) density gradient centrifugation. After two washes with PBS, cells were diluted in PBMCs medium and counted. Since MLR was conducted in two-ways format, each donor was utilized as stimulator and as responder.
In each session, 0.87*10^6/ml PBMCs cells from each donor were mixed and then γ-irradiated with 4000 rad (about 6.25 minutes). Cells were diluted in PBMCs medium to give the highest concentration). Further dilutions in ×2-fold were done in PBMCs medium. 50*10^6 were taken from each donor to obtain a mixture of stimulators in each experiment.
Cells were resuspended in PBMCs medium at approximately 2*10^6 cells/ml and incubated in flasks for 2 hours at 5% CO2, 37° C. Adherent cells were dis-carded while non-adherent cells in the supernatant were centrifuged at 700 g for 10 minutes. To enrich for T lymphocytes, cells were resuspended in 5% PBMCs medium and loaded on nylon wool columns (Uni-Sorb, Novamed) at 8*10^7 cells/ml, according to manufacturer instructions.
Cells were seeded in 96-well round-bottom plates at the varying ratios of stimulator vs. responder cells.
^3[H]-Thymidine was added to the cell culture at 18 hrs before the end of the cultivation period (6 days). Cells were harvested and transferred to filters (unifilters GF/C) using the Packard filtermate Cell harvester. Following addition of scintillation fluid (MicroScint20™) to the filters, they were counted in Packard microplate scintillation β-counter. Results are expressed as Counting Per Minutes (CPM).

The conditions of data set [3]: cited from earlier work.
Data set [4] relates to IL-6. As to the kind of experiment: Phase IIa clinical trial in rheumatoid arthritis patients, IL-6 assessment (PK/PD population). The format is in vivo, human. To be noted: RA patients. The procedure:
In a phase IIa clinical trial, a total of 225 patients diagnosed with active rheumatoid arthritis were randomized to receive one of the following treatments: • 6.25 mg of Rabeximod (daily) • 15 mg of Rabeximod (daily) • 37.5 mg of Rabeximod (daily) • Placebo
Study drug was provided in the form of a capsule comprising rabeximod in the form of a (micronized) powder. Over 200 patients completed the study.
The primary aim of the study was to evaluate the safety and efficacy of
Rabeximod treatment in RA patients. The study also involved Pharmacokinetic and Pharmacodynamic assessments in a subgroup (PK/PD Population) of 36 patients. This included assessment of changes in hsCRP, TNF-α, IL-6, COMP and anti-CCP.

Data set [5] concerns human peripheral blood mononuclear cells (PBMC). As to the kind of experiment: LPS-stimulated cytokine/chemokine release from human PBMC in vitro (multiplex, Luminex). It counts as cell-based. To be noted: PBMC from 7 donors. How it is done: The effect of Rabeximod on the release of GM-CSF, IL-113, IL-6, IL-8, TNF-α, MCP-1, MIP-1a, MIP-1β and RANTES from human peripheral blood mononuclear cells (PBMC) in vitro was evaluated. Rabeximod was tested at two concentrations (1.25 μg/ml and 12.5 μg/ml) on PBMC's isolated from 7 donors. Human PBMCs were isolated from whole blood using a Ficoll gradient. Cells ([…]) were then plated in a volume of 0.5 ml (0.5 ml of vehicle control (1% methanol in RPMI 1640 media) or rabeximod resuspended in methanol and diluted to a concentration of […] media was added). After incubation (1 h 37° C.) with LPS (0.1 mg/ml), cells were further incubated for 18-20 h before supernatant was removed for analysis of cytokine production using cytokine multiplex assays (Biosource, Nivelles, Belgium), accord-ing to the manufacturer's instructions. Data were collected using a Luminex 100 (Luminex Corporation, Austin, Tex., USA). All samples were analyzed in duplicates and a mean value for each sample was calculated.

Turning to `Cc1cc2nc3c4cc(Cl)ccc4n(CC(=O)NCCN(C)C)c3nc2cc1C` [Rabeximod, 9-Chloro-2,3-dimethyl-6-(N,N-dimethylaminoethylamino-2-oxoethyl)-6H-indolo-[2,3-b]quinoxaline], the “inhibition of T cell proliferation” value in data set [1] (300 ng/ml) is “Approximately 50%”; in data set [1] (500 ng/ml) it was “approximately 80%”. Moreover, in data set [1] (Rattus norvegicus, T-cell, 300 ng/ml), the inhibition at 0.3 µg/mL is at least 50%. The compound also returned an inhibition at 0.5 µg/mL in data set [1] (Rattus norvegicus, T-cell, 500 ng/ml) of at least 80%. Further, the “inhibition of MLR activity” value in data set [2] (10^−5 M, all responder:stimulator ratios) is reported as “strong inhibitory effect”; in data set [2] (10^−8 M) it was “the inhibition decreased to a lesser extent”; in data set [2] (lower doses (10^−7, 10^−8 M)) it was “less effective”; in data set [2] (two highest concentrations (10^−5, 10^−6 M), all tested ratios), “highly inhibitory”. Also, the “fraction in plasma bound to protein” value in data set [3] is “approximately 99%”. Further, the “change in IL-6 median value from baseline” value in data set [4] (6.25 mg daily, Week 12) is −185.0 IU/L; in data set [4] (6.25 mg daily, Week 16) it was −804 IU/L; in data set [4] (15 mg daily, Week 12), −1679.0 IU/L; in data set [4] (15 mg daily, Week 16), −1879 IU/L; in data set [4] (37.5 mg daily, Week 12), 136.0 IU/L; in data set [4] (37.5 mg daily, Week 16), −1124 IU/L. Besides, the “LPS-stimulated production of IL-6” value in data set [5] (1.25 μg/ml) is “significantly reduced”. Further, in data set [5] (1.25 μg/ml), the “LPS-stimulated production of MIP-1α” value is on record as “significantly reduced”. For the same compound, the “LPS-stimulated production of MIP-1β” value in data set [5] (1.25 μg/ml) is given as “significantly reduced”. The “LPS-stimulated production of TNFα” value in data set [5] (1.25 μg/ml) is “significantly reduced”. Also, in data set [5] (12.5 μg/ml), the “LPS-stimulated production of RANTES” value was “all but RANTES were reduced”. Besides, the “LPS-stimulated production of pro-inflammatory cytokines and chemokines other than RANTES” value in data set [5] (12.5 μg/ml) is given as “reduced”.
